Test results from ChEMBL document CHEMBL5465560, “Selectivity Literature for EUbOPEN Chemogenomic Library” (2024).
One block for each compound: values may come before it.

What was measured:
[1] = molecular target: Calcium/calmodulin-dependent protein kinase type II subunit delta (Homo sapiens) (UniProt Q13557); assay: Selectivity interaction (SelectScreen profiling (Invitrogen)) EUB0000607a CAMK2D; conditions: at 2 µM
[2] = test system: Mast/stem cell growth factor receptor Kit (Homo sapiens), P10721 [V559D,V654A]; conditions: at 10 µM
[3] = molecular target: T1, Serine/threonine-protein kinase TAO2 (Homo sapiens) (UniProt Q9UL54); assay: Selectivity interaction (ProQinase) EUB0000171b TAOK2
T1 sequence (whole entry): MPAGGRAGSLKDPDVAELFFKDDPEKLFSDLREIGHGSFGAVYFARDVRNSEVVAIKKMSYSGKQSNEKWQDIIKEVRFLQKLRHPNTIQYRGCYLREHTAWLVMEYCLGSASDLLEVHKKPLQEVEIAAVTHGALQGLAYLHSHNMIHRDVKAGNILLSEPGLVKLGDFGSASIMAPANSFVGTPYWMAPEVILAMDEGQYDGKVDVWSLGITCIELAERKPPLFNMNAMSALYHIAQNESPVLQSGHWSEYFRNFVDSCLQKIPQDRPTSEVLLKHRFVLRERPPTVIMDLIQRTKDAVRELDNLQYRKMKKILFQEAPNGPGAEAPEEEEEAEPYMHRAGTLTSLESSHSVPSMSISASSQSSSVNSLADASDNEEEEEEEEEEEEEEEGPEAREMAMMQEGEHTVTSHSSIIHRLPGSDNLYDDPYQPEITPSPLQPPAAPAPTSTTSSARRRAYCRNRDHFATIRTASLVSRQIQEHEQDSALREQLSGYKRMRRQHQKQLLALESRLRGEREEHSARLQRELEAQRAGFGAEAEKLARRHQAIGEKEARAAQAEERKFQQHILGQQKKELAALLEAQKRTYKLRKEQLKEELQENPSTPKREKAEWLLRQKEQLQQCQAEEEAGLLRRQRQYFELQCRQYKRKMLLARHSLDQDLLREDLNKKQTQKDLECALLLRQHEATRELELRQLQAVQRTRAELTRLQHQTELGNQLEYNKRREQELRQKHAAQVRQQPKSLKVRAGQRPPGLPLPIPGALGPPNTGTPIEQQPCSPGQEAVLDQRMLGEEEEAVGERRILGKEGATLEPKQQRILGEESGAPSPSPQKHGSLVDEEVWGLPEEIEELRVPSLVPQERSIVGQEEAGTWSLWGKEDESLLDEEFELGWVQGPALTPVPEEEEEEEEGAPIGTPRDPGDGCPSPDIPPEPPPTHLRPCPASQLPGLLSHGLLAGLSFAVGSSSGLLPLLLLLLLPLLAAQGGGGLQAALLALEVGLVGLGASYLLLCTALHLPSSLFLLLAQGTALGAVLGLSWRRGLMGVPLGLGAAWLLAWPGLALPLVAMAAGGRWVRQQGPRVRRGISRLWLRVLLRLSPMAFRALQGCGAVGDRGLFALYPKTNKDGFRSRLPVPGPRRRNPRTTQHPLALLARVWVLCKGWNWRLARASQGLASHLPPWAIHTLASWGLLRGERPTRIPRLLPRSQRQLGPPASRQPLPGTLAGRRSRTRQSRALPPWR

[4] = molecular target: T2, NUAK family SNF1-like kinase 2 (Homo sapiens) (UniProt Q9H093); assay: Selectivity interaction (ProQinase) EUB0000171b NUAK2
T2 sequence (whole entry): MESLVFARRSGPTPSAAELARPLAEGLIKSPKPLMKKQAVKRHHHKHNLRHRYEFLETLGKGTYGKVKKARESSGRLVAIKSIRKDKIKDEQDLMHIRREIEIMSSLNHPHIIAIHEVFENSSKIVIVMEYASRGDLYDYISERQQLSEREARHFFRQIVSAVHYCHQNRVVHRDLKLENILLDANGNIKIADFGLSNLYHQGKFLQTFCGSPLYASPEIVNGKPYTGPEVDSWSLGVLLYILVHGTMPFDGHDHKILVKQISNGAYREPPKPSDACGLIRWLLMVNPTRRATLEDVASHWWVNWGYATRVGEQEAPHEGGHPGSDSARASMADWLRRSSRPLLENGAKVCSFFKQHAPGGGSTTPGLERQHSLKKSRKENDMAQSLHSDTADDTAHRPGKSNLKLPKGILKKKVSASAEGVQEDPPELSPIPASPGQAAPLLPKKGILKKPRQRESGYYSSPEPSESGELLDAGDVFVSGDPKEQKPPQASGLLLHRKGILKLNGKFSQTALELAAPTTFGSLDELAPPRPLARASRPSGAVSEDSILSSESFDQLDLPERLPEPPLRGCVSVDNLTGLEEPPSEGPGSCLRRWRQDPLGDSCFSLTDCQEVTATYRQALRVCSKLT

[5] = molecular target: T3, Serine/threonine-protein kinase Sgk2 (Homo sapiens) (UniProt Q9HBY8); assay: Selectivity interaction (KinomeScan (DiscoverX)) EUB0001049a SGK2; conditions: at 1 µM
T3 sequence (whole entry): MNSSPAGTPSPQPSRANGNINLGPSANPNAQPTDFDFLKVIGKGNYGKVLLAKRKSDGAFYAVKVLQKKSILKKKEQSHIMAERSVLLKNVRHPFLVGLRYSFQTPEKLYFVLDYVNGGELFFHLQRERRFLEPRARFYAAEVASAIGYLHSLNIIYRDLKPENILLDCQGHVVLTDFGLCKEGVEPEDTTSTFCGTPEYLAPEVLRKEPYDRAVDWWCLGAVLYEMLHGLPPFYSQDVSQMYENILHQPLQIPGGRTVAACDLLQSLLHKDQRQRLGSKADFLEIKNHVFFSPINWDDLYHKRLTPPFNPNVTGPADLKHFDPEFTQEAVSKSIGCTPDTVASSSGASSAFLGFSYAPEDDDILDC

[6] = molecular target: Platelet-derived growth factor receptor beta (Homo sapiens, UniProt P09619); assay: Selectivity interaction (Kinase panel (Carna Biosciences)) EUB0001542aTs PDGFRB; conditions: at 1 µM
Sequence of Platelet-derived growth factor receptor beta (P09619 whole entry): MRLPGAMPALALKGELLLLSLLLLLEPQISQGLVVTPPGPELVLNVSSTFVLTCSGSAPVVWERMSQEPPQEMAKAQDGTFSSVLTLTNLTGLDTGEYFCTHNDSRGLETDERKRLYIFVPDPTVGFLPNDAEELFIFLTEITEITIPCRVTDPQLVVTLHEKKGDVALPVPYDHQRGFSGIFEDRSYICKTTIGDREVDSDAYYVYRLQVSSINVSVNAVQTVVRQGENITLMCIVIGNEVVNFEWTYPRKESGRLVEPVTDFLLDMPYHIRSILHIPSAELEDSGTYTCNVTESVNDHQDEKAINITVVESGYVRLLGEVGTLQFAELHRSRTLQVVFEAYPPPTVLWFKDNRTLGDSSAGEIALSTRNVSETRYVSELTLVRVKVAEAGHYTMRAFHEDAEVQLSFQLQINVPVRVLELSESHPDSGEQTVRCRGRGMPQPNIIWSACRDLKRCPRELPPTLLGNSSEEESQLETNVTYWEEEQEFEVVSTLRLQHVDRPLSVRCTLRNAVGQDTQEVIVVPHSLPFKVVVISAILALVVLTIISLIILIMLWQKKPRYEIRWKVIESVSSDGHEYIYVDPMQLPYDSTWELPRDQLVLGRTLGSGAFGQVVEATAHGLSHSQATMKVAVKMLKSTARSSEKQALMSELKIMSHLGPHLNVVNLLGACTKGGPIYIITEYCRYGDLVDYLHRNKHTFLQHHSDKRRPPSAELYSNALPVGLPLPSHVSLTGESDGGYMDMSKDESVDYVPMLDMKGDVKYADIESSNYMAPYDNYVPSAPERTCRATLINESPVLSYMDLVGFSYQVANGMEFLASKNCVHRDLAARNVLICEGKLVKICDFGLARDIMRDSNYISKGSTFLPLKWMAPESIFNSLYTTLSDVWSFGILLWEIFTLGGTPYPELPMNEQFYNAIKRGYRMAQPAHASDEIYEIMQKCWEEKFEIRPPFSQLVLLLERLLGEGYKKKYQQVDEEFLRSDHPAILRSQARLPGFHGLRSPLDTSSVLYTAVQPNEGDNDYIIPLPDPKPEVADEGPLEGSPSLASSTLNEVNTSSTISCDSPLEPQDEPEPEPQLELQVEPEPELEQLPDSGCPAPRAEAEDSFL

Sequence of Mast/stem cell growth factor receptor Kit (Homo sapiens), P10721 [V559D,V654A] (P10721 whole entry V559D/V654A): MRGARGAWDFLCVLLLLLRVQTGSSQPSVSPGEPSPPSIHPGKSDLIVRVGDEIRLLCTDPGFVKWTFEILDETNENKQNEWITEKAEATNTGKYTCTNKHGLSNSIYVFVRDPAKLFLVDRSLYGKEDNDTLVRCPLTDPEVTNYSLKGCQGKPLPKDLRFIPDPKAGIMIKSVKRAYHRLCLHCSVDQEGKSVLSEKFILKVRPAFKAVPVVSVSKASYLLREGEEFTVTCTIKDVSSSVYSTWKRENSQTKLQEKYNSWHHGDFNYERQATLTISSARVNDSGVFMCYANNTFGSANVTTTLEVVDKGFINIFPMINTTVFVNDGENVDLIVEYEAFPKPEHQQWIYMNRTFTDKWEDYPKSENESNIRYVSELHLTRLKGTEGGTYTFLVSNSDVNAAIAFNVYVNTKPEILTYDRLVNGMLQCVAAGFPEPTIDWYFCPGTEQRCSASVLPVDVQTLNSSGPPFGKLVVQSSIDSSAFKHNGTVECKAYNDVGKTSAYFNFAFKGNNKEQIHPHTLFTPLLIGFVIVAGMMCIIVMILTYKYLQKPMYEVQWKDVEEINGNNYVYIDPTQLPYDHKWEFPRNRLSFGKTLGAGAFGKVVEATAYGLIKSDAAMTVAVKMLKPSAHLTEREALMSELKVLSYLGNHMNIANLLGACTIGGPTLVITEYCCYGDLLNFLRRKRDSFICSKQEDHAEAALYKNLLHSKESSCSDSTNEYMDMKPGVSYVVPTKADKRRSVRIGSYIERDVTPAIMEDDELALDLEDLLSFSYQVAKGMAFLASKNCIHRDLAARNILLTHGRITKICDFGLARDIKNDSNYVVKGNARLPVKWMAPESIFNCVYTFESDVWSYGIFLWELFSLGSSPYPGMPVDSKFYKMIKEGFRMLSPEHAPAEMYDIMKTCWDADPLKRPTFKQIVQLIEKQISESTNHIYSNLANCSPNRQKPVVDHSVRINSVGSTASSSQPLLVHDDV
Sequence of Calcium/calmodulin-dependent protein kinase type II subunit delta (Homo sapiens) (Q13557 whole entry): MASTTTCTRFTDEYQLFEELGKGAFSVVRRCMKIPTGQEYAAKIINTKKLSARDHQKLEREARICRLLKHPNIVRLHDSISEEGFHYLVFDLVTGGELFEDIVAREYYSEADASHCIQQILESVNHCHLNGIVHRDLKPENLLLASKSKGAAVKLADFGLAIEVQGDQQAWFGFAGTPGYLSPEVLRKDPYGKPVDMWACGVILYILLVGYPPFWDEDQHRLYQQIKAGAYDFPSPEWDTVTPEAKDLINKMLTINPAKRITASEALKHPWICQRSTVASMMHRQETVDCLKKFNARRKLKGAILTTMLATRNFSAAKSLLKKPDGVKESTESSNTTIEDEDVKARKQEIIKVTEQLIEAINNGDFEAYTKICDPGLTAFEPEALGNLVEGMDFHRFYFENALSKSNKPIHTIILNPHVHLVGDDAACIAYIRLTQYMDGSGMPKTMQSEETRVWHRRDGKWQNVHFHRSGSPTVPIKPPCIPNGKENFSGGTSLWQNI

SMILES: CNC(=O)Nc1ccc(-c2nc(N3CC4CCC(C3)O4)c3cnn(C4CCC5(CC4)OCCO5)c3n2)cc1
% of inhibition [1]: 11%

SMILES: COc1cc(Nc2nc(C)cc(-c3cnn4nc(OC)ccc34)n2)cc(C(F)(F)F)c1
% of control [5]: 78%

SMILES: Cn1cc(Nc2nccc(N3CC4CCC(C3)N4C(=O)[C@@H]3CC3(F)F)n2)cn1
% of inhibition [6]: 66%

The remaining lines, values ahead:

% of control [2]: 100%
SMILES: CCN(CC)CCCCNc1ncc2cc(-c3cc(OC)cc(OC)c3)c(NC(=O)NC(C)(C)C)nc2n1

% of control ([3]; at 1 µM): 38% | % of control ([3]; at 5 µM): 16% | % of control ([4]; at 1 µM): 99% | % of control ([4]; at 5 µM): 87%
SMILES: C=CC(=O)Nc1cccc(C(=O)Nc2ccc(Nc3cc(-c4[nH]c(SC)nc4C)ccn3)cc2)c1
